Results on 2 molecules are retold here after US8637043B2, “Compositions useful as ligands for the formyl peptide receptor like 1 receptor and methods of use thereof” (Chemocentryx, Inc., priority 2001, dated 2014).

Where “and” joins values, the source holds several entries; their conditions need not be identical. Equal values may be shown once. Ends that are not written are not given here.

The subject of one assay is OVA-specific antibody. The assay can be described thus: OVA-specific antibody responses with IFA or alum adjuvant in Rhesus monkeys (Example 18). In kind it is in vivo. As to the method:
First, 96-well U-bottom plastic dishes were coated overnight with 1 μg ovalbumin (OVA) in 100 μl PBS per well. The next day, the dishes were rinsed with PBS, blocked with PBS containing 5% fetal bovine serum (FBS), and rinsed with PBS again. Plasma samples from experimental animals (see below) were diluted 10^2- to 10^5-fold and added to the dishes for 2 hours, after which the dishes were again rinsed with PBS. The dishes were then incubated with biotinylated goat anti-monkey IgG detection antibodies, then rinsed with PBS and incubated with streptavidin-linked horseradish peroxidase (SA-HRP). After a final rinsing with PBS, the HRP substrate 2,2′-Azinobis [3-ethylbenzothiazoline-6-sulfonic acid]-diammonium salt was added.
Different types of immune responses can be induced in mammals by varying parameters such as the dose of antigen, the formulation, the route of administration, and the type of adjuvant.

A further assay relates to dendritic cells. The assay can be described thus: Dendritic cell infiltration after intradermal injection in mice (anti-DEC-205 staining). It is filed as in vivo. Set-up: key to Dendritic cell infiltration Score / Infiltration Score: 0 = none, 1 = slight, 2 = mild, 3 = moderate, 4 = severe. The text has this: The following chemokines were obtained from R&D Systems (Minneapolis, Minn.): vMCK-2, mC10, and GM-CSF. The following peptides were synthesized at Phoenix Pharmaceuticals (San Carlos, Calif.): SHAAYtide (SEQ ID NO:6), several […] MODIFIED peptides of SHAAGtide variant (SEQ ID NO:) (i.e. cyclized using the MPR-Cys linked cyclization), control peptide (SEQ ID NO:33, […]Gin Pro Gly lie Lys Arg Arg Trp Leu Met), randomly conjugated to OVA in either a 1:1 or 1:4 ratio (by MBS coupling method), and conjugated to OVA at the C-terminus (C-term, made by the addition of a cysteine), and SHAAGtide variant (SEQ ID NO:3). In three separate experiments, chemokines or peptides (2 μg or 20 μg in PBS) were injected intradermally into BALB/c or C57BI/6 mice (Jackson Laboratory; Bar Harbor, Me.). In each experiment, one mouse received an injection of PBS only as a negative control. At various times after injection, the mice were euthanized, and the area around the injection site was excised and subjected to immunohistology. Frozen sections were stained with anti-DEC-205 antibody (Bio-Whittaker Molecular Applications; Rockland, Me.) that recognizes a dendritic cell-specific molecule (Kraal et al., 1986). A relative staining number on a scale of […] was assigned to each section (0, none; 1, slight; 2, mild; 3, moderate; 4, severe).

The test system of the next assay is OVA-specific IgG. In words: Adjuvant activity, anti-OVA antibodies in Rhesus monkeys (Example 16). In kind it is in vivo. The conditions noted are these: effectiveness as adjuvant. As to the method: First, 96-well U-bottom plastic dishes were coated overnight with 1 μg ovalbumin (OVA) in 100 μl PBS per well. The next day, the dishes were rinsed with PBS, blocked with PBS containing 5% fetal bovine serum (FBS), and rinsed with PBS again. Plasma samples from experimental animals (see below) were diluted 10^2- to 10^5-fold and added to the dishes for 2 hours, after which the dishes were again rinsed with PBS. The dishes were then incubated with biotinylated goat anti-monkey IgG detection antibodies, then rinsed with PBS and incubated with streptavidin-linked horseradish peroxidase (SA-HRP). After a final rinsing with PBS, the HRP substrate 2,2′-Azinobis [3-ethylbenzothiazoline-6-sulfonic acid]-diammonium salt was added. Color development was measured with an ELISA plate reader at 405 nm, and optical density (OD) units were converted to arbitrary “antibody units,” where a unit is defined as the inverse of the plasma dilution that produces 50% of the maximum response from a standard curve obtained by serial dilution of an ascites collected from OVA-injected mice and containing OVA-specific antibodies.
Since the SHAAYtide (SEQ ID NO:6) and the chemokines mC10 and vMCK-2 recruited APCs, including dendritic cells, to the site of injection, these polypeptides were tested for their ability to act as immunization adjuvants to augment the immune response to a co-injected foreign antigen. […]

The subject of another assay is native L1.2 cells. The assay can be described thus: Calcium flux in parental L1.2 cells or cells transfected with other chemokine receptors. In kind it is cell-based, murine. The conditions noted are these: pariental cells or cells transfected with other chemokine receptors. The text has this:
The functional activities of CKβ8-1 (25-116) were investigated in human FPRL1-L1.2 transfectants and in native L1.2 cells. Stable expression of formyl peptide-like receptor 1 (FPRL1) in L.1.2 cell was obtained as follows. Full length cDNA encoding FPRL1 was cloned, using the polymerase chain reaction (PCR), from genomic DNA isolated from undifferentiated HL-60 cells. The polymerase chain reaction product was cloned into pcDNA3.1 (Invitrogen, Carlsbad, Calif.) using standard molecular cloning procedures and completely sequenced to confirm identity. Twenty micrograms of the FPRL1/pcDNA3.1 construct were linearized by digestion with Bsm1 (New England Biolabs, Beverly, Mass.) and used to transfect the murine B cell line L1.2 as follows. Twenty five million cells were washed twice and resuspended in 0.8 ml of PBS. The cells were incubated for 10 min at room temperature with the linearized FPRL/pcDNA3.1 construct DNA and transferred to a 0.4-cm cuvette, and a single electroporation pulse was applied at 250 V, 960 μF. Electroporated cells were incubated for 10 min at room temperature and transferred to culture at 37° C. in RPMI supplemented with 10% FCS. […] After 2-3 weeks under drug selection, stable geneticin-resistant FPLR1 expressing cells were assessed for their ability to mobilize Ca^++ in response to SHAAGtide or CKbeta 8-1 at concentrations of 1 to 1000 nM. […]
(A change in cytosolic calcium serves as a functional read-out for many receptors and channels.)

Turning to MLWRRKIGPQMTLSHAAY [SEQ ID NO: 6], the “effect of co-administration on the OVA with IFA response” value in the assay on OVA-specific antibody (IFA adjuvant) is “did not diminish the OVA with IFA response”. Also, the “effect of co-administration on the IgG response induced by OVA plus alum” value in the assay with OVA-specific antibody (alum adjuvant) is “dramatically reduced the IgG response induced by OVA plus alum”. Further, the “Dendritic cell infiltration Score” value is 2 and 3 in the assay on dendritic cells (BALBc mice, 2 μg, 6 hours, listed as SHAAYtide (SEQ ID NO: 6)); 3 and 2 with dendritic cells (BALBc mice, 2 μg, 30 hours, listed as SHAAYtide (SEQ ID NO: 6)); 2 and 3 in the assay with dendritic cells (BALBc mice, 20 μg, 6 hours, listed as SHAAYtide (SEQ ID NO: 6)); 1 with dendritic cells (C57B1/6 mice, 2 μg dose, 6 hours, 0 none, 1 slight, 2 mild, 3 moderate, 4 severe, one animal per line); 0 with dendritic cells (C57B1/6 mice, 2 μg dose, 30 hours); 0 in the assay on dendritic cells (C57B1/6 mice, 2 μg dose, 51 hours). Moreover, the “infiltration of DEC-205-labeled cells” value in the assay on dendritic cells (summary of Tables 15, 16 and 17) is listed as “excellent infiltration”. Moreover, in the assay with OVA-specific IgG, the “Notes: adjuvant” value is “effective”.

B1: CKβ8-1(25-116): novel NH2-terminal truncated form of CKβ8-1, SEQ ID NO: 16, human recombinant chemokine (protein, listed as Homo sapiens)
chain: MLWRRKIGPQMTLSHAAGFHATSADCCISYTPRSIPCSLLESYFETNSECSKPGVIFLTKKGRRFCANPSDKQVQVCMRMLKLDTRIKTRKN
B1: the induced calcium release result in the assay on native L1.2 cells was “not observed”.
